Assay results from patent US20240108738A1, “BICYCLIC PEPTIDE LIGANDS SPECIFIC FOR NK CELLS” (Bicycle Tx Limited, priority 2021, published 2024).
Read-outs that look alike come from different tables or passages of the source. Values belong to the compound of their own block, whether it stands above or below them.

Tests used:
[1] = biological target: T1, CD16a/FCgRIIIa (F158 variant) (Homo sapiens, UniProt P08637); assay: CD16a/FCgRIIIa HTRF assay (IgG competition on HEK293 cells); format: binding
T1 construct: host or cells: HEK293

CD16a (V Variant) = CD16a (V Variant) (Homo sapiens, UniProt P08637, F176V); assay: FcγRIII (CD16a) SPR (Method A and/or Method B), V variant; format: binding
[2] = system: CD56+ (NK cells) from human PBMCs; assay: Flow cytometry binding to PBMCs, CD56+ (NK cell) population; format: cell-based; conditions: FIG. 2A
Protocol: (§1) The affinity of NKp46 dimeric bicyclic peptides conjugated to Alexa Fluor® 488 to primary healthy peripheral blood mononuclear cells (PBMCs) was evaluated using a flow cytometry assay.
(§2) On the day of the experiment, medium was prepared by supplementing RPMI-1640 (Gibco™ 11875-093; with L-glutamine) with 10% heat-inactivated fetal bovine serum (FBS; Corning® 35-011-CV), 10 mM HEPES (Gibco™ 15-630-080), and 1% Penicillin Streptomycin (Corning™ 30-002-Cl), herein referred to as working medium. Previously isolated human peripheral blood mononuclear cells (PBMCs), from whole blood, were quick thawed in a water bath and washed once at 500 rpm for 5 minutes in 10 mL of prewarmed working medium. […]
(§3) Preparation of samples for flow cytometry: Zombie Aqua™ Fixable Viability Dye (BioLegend® 423102) was prepared as a 1:1000 dilution in PBS and 100 μL of viability dye was added to each well and incubated in the dark at 4° C. for 30 minutes. […] Cells were resuspended in 200 μL of stain buffer and kept at 4° C. in the dark until read by BD FACSCelesta™ flow cytometer.
(§4) Flow cytometry results were analyzed in FlowJo™ software with a gating strategy to evaluate the lymphocyte population then exclude debris, gate on single and live cells only, and determining the geometric mean of the Alexa Fluor® 488 in the CD3+ and CD3−/CD56+ populations. […]

[3] = system: CD56- CD3+ (T-cell population) from human PBMCs; assay: Flow cytometry binding to PBMCs, CD56-/CD3+ (T-cell) population; format: cell-based; conditions: FIG. 2B
Protocol: as §1, §2, §3, §4

human CD16a V176 variant = assay: IgG competition assay (AlphaScreen), V variant; format: binding; conditions: N-terminally biotinylated CD16a V176 10 nM, mouse IgG2a acceptor beads
human FcγRIII (CD16a) = human FcγRIII (CD16a) (Homo sapiens, UniProt P08637); assay: FcγRIII (CD16a) SPR (Method A); format: binding
Protocol: SPR experiments were performed to determine ka (M^−1s^−1), kd (s^−1), KD (nM) values (where measurable) of various bicyclic peptides to immobilized human FcγRIII proteins.
For analysis of peptide binding, a Biacore 3000 or T200 instrument was used with a CM5 chip (GE Healthcare). Streptavidin was immobilized on the chip using standard amine-coupling chemistry at 25° C. with HBS-N (10 mM HEPES, 0.15 M NaCl, pH 7.4) as the running buffer. Briefly, the carboxymethyl dextran surface was activated with a 7 min injection of a 1:1 ratio of 0.4 M 1-ethyl-3-(3-dimethylaminopropyl) carbodiimide hydrochloride (EDC)/0.1 M N-hydroxy succinimide (NHS) at a flow rate of 10 μl/min. For capture of streptavidin, the protein was diluted to 0.2 mg/ml in 10 mM sodium acetate (pH 4.5) and captured by injecting 120 μl of onto the activated chip surface. Residual activated groups were blocked with a 7 min injection of 1 M ethanolamine (pH 8.5) and biotinylated FcγRIII captured to a level of 400-1,400 RU. Buffer was changed to PBS/0.05% Tween 20 and a dilution series of the peptides was prepared in this buffer with a final DMSO concentration of 0.5%. […] The SPR analysis was run at 25° C. at a flow rate of 50 μl/min with 60 seconds association and dissociation between 60 and 200 seconds. Data were corrected for DMSO excluded volume effects. […]

Compound: CC(C)C[C@@H]1NC(=O)CNC(=O)[C@H](C(C)C)NC(=O)[C@@H](NC(=O)[C@H](C)N)CSCc2nc3nc(n2)CSC[C@H](NC(=O)[C@@H]2CCCN2C(=O)CNC(=O)[C@H](CC(C)C)NC(=O)[C@H](CCC(=O)O)NC(=O)[C@H](CCC(=O)O)NC1=O)C(=O)N[C@@H](CO)C(=O)N[C@@H](CC(=O)O)C(=O)N[C@@H](CC(C)C)C(=O)N[C@H](C(=O)N[C@@H](C)C(N)=O)CSC3 [BCY16493, A-(SEQ ID NO: 62)-A]
IC50 [1]: 4.79 µM
Kd (CD16a (V Variant)): 7330 nM

IC50 ([1]; HTRF, competition with IgG-d2 on HEK293 cells expressing Terbium-labelled CD16a, 2 h at RT, read-out: IC50): 9.44 µM
Kd (CD16a (V Variant); SPR Method A and/or B, Table 6B, read-out: Kd (nM) (V Variant)): 3710 nM
Compound: CC(C)C[C@@H]1NC(=O)[C@@H]2CCCN2C(=O)[C@H](Cc2c[nH]cn2)NC(=O)[C@@H]2CSCCC(=O)N3CN(CN(C3)C(=O)CCSC[C@H](NC(=O)[C@H](C)N)C(=O)N3CCC[C@H]3C(=O)N3CCC[C@H]3C(=O)N[C@@H]([C@@H](C)O)C(=O)N[C@@H](C(C)C)C(=O)N[C@@H](Cc3ccc(O)cc3)C(=O)N2)C(=O)CCSC[C@@H](C(=O)N[C@@H](C)C(N)=O)NC(=O)[C@H](CC(=O)O)NC1=O [BCY11808, A-(SEQ ID NO: 60)-A]

Compound: C[C@H](N)C(=O)N[C@H]1CSCc2nc3nc(n2)CSC[C@H](NC(=O)[C@@H]2CCCN2C(=O)[C@H](CCC(=O)O)NC(=O)[C@H](CO)NC(=O)[C@@H]2C[C@@H](O)CN2C(=O)[C@H](Cc2c[nH]cn2)NC(=O)[C@H](Cc2c[nH]c4ccccc24)NC(=O)[C@H](CCCNC(=N)N)NC1=O)C(=O)NCC(=O)N[C@@H](C)C(=O)N[C@@H](Cc1c[nH]c2ccccc12)C(=O)N[C@H](C(=O)N[C@@H](C)C(N)=O)CSC3 [BCY20383, A-(SEQ ID NO: 228)-A]
IC50 [1]: 1.11 µM

Compound: BCY15663: AF488 NKp46 homodimer of BCY15452, C-term D-Lys(PYA), linker N-(amine-PEG2)-N-bis(PEG3-azide) (ACYLPDYLCGDEYCAK; not fully specified; D-residues)
binding to CD56+ (NK cell) population of PBMCs (in words) [2]: dose-dependent binding
binding to CD56-/CD3+ (T-cell) population of PBMCs (in words) [3]: binding to NK cells only

IC50 (human CD16a V176 variant): 3480 nM
Compound: C#CCCC(=O)NCCCC[C@H](NC(=O)[C@H](C)NC(=O)[C@@H]1CSCCC(=O)N2CN3CN(C2)C(=O)CCSC[C@H](NC(=O)[C@H](C)N)C(=O)N2CCC[C@H]2C(=O)N2CCC[C@H]2C(=O)N[C@@H]([C@@H](C)O)C(=O)N[C@@H](C(C)C)C(=O)N[C@@H](Cc2ccc(O)cc2)C(=O)N[C@@H](CSCCC3=O)C(=O)N[C@@H](Cc2c[nH]cn2)C(=O)N2CCC[C@H]2C(=O)N[C@@H](CC(C)C)C(=O)N[C@@H](CC(=O)O)C(=O)N1)C(N)=O [BCY15685, A-(SEQ ID NO: 60)-A-[K(PYA)]]

Compound: C#CCCC(=O)NCCCC[C@H](NC(=O)[C@H](C)NC(=O)[C@@H]1CSCc2nc3nc(n2)CSC[C@H](NC(=O)[C@@H]2CCCN2C(=O)CNC(=O)[C@H](CC(C)C)NC(=O)[C@H](CCC(=O)O)NC(=O)[C@H](CCC(=O)O)NC(=O)[C@H](CC(C)C)NC(=O)CNC(=O)[C@H](C(C)C)NC(=O)[C@@H](NC(=O)[C@H](C)N)CSC3)C(=O)N[C@@H](CO)C(=O)N[C@@H](CC(=O)O)C(=O)N[C@@H](CC(C)C)C(=O)N1)C(N)=O [BCY13886, A-(SEQ ID NO: 62)-A-[K(PYA)]]
Kd (human FcγRIII (CD16a)): 2.2 µM
IC50 (human CD16a V176 variant): 3190 nM
